Measured values published in article PMC12785803, “Novel ACE-Inhibitory Peptides from Royal Jelly Proteins: Comprehensive Screening, Mechanistic Insights, and Endothelial Protection” (Foods, 2025).
Like-named read-outs stand apart in the source and are kept apart here.

Assays:
EA.hy926 cells [1] = test: GSH-Px activity in H2O2-damaged cells; format: cell-based; settings: 500 μmol/L H2O2 alone; control 165.92 ± 5.21
Procedure: (§1) The activities of SOD and GSH-Px were assessed as follows. EA.hy926 cells were seeded in 6-well plates at 4 × 10^5 cells per well and cultured overnight. After attachment, the cells were serum-starved in high-glucose DMEM containing 1% FBS for 12 h, and then treated for 24 h with peptide solutions at the indicated concentrations or with captopril. […] After treatment, the cells were washed with ice-cold PBS, lysed on ice, and centrifuged to collect the supernatants. SOD and GSH-Px activities were measured spectrophotometrically at 550 nm and 412 nm, respectively, using a microplate reader. Enzyme activities were calculated, normalized to total protein content, and expressed as U/mg protein.

EA.hy926 cells [2] = test: SOD activity in H2O2-damaged cells; format: cell-based; settings: 500 μmol/L H2O2 alone; control 126.15 ± 9.22
Procedure: as §1

EA.hy926 cells [3] = test: ET-1 level in Ang II-stimulated cells (ELISA); format: cell-based; settings: Ang II 1 μmol/L alone; control 13.82 ± 0.69
Procedure: (§2) To evaluate the effect of the peptide on endothelial function, NO and ET-1 levels were measured in this study. Briefly, EA.hy926 cells were seeded in 6-well plates at a density of 4 × 10^5 cells/well and allowed to adhere overnight. After removing the medium, cells were incubated with 1 μmol/L Ang II for 12 h to induce endothelial dysfunction. Subsequently, the peptide solutions at different concentrations (0.1, 0.2, and 0.4 mg/mL) or the captopril solutions were added, and the cells were incubated for an additional 24 h. For the blank control group, the cells received no treatment. After incubation, the culture supernatants were collected and centrifuged to remove debris. Both NO and ET-1 contents in the supernatants were quantified using commercial kits according to the manufacturer’s protocols. NO content was determined using the Griess reaction (OD = 550 nm), and ET-1 levels were measured via enzyme-linked immunosorbent assay (ELISA) (OD = 450 nm). Absorbance values were recorded at the corresponding wavelengths using a microplate reader (Spark 10M, Tecan, Männedorf, Switzerland).

EA.hy926 cells [4] = test: Wound healing assay (Ang II-induced migration); format: cell-based; settings: Ang II 1 μmol/L alone
Procedure: The effect of peptides on endothelial cell migration was evaluated using a wound healing assay. Briefly, EA.hy926 cells were seeded into 6-well plates and cultured at 37 °C in a humidified atmosphere containing 5% CO2. When the cells reached full confluence, they were treated with 1 μmol/L Ang II for 12 h to induce endothelial dysfunction. Subsequently, a straight scratch was created across the cell monolayer using a sterile 200 μL pipette tip. Detached cells were gently removed by rinsing with PBS, leaving a clear cell-free wound area. To minimize proliferation interference, cells were then incubated in high-glucose DMEM containing 1% FBS, supplemented with different concentrations of the peptides or captopril. Images of the same wound area were captured at 0 h, 6 h, and 24 h using a fluorescence microscope (Axio Observer, Zeiss, Jena, Germany), and the wound area was quantified using ImageJ software (version 1.54g).

EA.hy926 cells [5] = test: NO level in Ang II-stimulated cells (Griess); format: cell-based; settings: Ang II 1 μmol/L alone; control 109.8 ± 3.93
Procedure: as §2

ACE [6] = test system: ACE; design: method as in 4 sources, ref Han et al. [33] ||| ref 45 = [45]; PMID 35323475; doi:10.3390/md20030176; 45. Zheng S.-L. Luo Q.-B. Suo S.-K. Zhao Y.-Q. Chi C.-F. Wang B. Preparation, Identification, Molecular Docking Study and Protective Function on HUVECs of Novel ACE Inhibitory Peptides from Protein Hy ||| ref 36 = [36]; PMID 37888451; doi:10.3390/md21100516; 36. Hu Y.-D. Xi Q.-H. Kong J. Zhao Y.-Q. Chi C.-F. Wang B. Angiotensin-I-Converting Enzyme (ACE)-Inhibitory Peptides from the Collagens of Monkfish ( Lophius litulon ) Swim Bladders: Isolation, Charac ||| ref 46 = [46]; PMID 37944395; doi:10.1016/j.foodchem.2023.137921; 46. Du T. Xu Y. Xu X. Xiong S. Zhang L. Dong B. Huang J. Huang T. Xiao M. Xiong T. ACE Inhibitory Peptides from Enzymatic Hydrolysate of Fermented Black Sesame Seed: Random Forest-Based Optimization; settings: cited from earlier work
Excerpt: These comparisons support the interaction profile observed for PY ...

ACE [7] = settings: cited from earlier work
Excerpt: As compared to traditional experiment-based screening approaches for ACE-inhibitory peptides, which are time-consuming and labor-intensive, an in silico strategy that integrates peptidomic analysis with virtual screening has emerged as a more efficient and cost-effective approach for identifying ACE-inhibitory peptides from food resources. For example, in a previous study by our group, a novel ACE-inhibitory peptide, MMDF, was identified from the simulated digest of oyster proteins using a virtual screening pipeline that incorporated bioactivity prediction, physicochemical proper ... || In recent years, the hydrolysates of royal jelly proteins (RJPs) have gained increasing attention due to their broad spectrum of biological activities, including antioxidant, antibacterial, anti-aging, and antihypertensive properties, which are largely attributed to their favorable amino acid composition and sequence characteristics.

[8] = target: T1, Angiotensin-converting enzyme (ACE) (Oryctolagus cuniculus, UniProt P12822); test: In vitro ACE-inhibitory activity (HHL substrate, HPLC of hippuric acid); format: biochemical; settings: tested at 0.5 mg/mL, p < 0.05
T1 sequence (P12822 34-1310): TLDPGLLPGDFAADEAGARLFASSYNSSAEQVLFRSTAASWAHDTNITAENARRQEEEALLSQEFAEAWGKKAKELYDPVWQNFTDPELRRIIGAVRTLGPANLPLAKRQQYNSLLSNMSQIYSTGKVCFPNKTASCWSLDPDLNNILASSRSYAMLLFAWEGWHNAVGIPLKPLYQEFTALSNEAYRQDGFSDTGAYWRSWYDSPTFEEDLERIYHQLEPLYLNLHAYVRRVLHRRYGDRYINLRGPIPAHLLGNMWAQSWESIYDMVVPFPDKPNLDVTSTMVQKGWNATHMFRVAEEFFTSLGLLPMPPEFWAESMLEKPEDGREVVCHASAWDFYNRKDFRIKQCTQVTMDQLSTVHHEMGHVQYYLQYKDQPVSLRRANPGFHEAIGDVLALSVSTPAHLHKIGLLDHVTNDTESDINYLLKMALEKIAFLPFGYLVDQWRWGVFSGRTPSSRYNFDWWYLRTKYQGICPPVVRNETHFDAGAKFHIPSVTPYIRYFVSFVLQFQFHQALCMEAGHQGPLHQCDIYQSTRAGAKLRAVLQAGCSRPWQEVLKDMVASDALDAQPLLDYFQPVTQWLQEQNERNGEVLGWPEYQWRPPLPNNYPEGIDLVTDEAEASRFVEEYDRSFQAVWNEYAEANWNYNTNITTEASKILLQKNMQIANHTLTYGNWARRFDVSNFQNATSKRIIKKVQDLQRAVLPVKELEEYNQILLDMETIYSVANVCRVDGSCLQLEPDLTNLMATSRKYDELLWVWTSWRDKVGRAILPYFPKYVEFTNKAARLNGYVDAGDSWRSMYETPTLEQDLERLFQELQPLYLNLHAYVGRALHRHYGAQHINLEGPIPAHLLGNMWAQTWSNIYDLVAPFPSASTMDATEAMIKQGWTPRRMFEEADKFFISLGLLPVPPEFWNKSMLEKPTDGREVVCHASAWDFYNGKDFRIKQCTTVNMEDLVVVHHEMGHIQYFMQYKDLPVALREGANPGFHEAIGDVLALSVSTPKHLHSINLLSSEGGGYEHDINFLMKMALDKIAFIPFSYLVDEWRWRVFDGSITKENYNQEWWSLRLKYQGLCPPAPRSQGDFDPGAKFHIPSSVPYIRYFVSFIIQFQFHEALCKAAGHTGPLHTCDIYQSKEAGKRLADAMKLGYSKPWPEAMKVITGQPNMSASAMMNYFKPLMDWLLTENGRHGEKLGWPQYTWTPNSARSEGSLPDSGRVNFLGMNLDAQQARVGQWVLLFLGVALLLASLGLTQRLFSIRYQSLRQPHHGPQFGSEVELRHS
Procedure: The ACE-inhibitory activity of the peptides was measured according to a previously reported method. Briefly, 50 μL of the peptide solution, prepared in borate buffer (pH 8.3) containing 0.3 mol/L NaCl, was mixed with 100 μL of HHL (5.82 mmol/L) prepared in the same buffer. After incubation at 37 °C for 5 min, the reaction was initiated by adding 15 μL of ACE solution (0.1 U/mL), also prepared in the borate buffer described above. The mixture was then incubated at 37 °C for 30 min and terminated by adding 150 μL of 1 mol/L HCl. For the blank control, the same procedure was performed using 50 μL of the borate buffer instead of the peptide solution.
The released hippuric acid (HA) was quantified using an Elite P3200 high-performance liquid chromatography (HPLC) system (Dalian Elite Analytical Instruments Co., Ltd., Dalian, China) equipped with a C18 reversed-phase column (Waters, Milford, MA, USA; 150 mm × 4.6 mm, 5 μm) at a detection wavelength of 228 nm. The mobile phase consisted of solvent A (water containing 0.05% trifluoroacetic acid) and solvent B (acetonitrile) in a ratio of 75:25 (v/v). […]
The ACE inhibition rate (%) was calculated using the following equation:(1) ACE Inhibitory rate%=Ablank−Asample/Ablank×100 where Ablank is the peak area of HA in the blank control test, and Asample is the peak area of HA in the sample test. […]

ACE [9] = test system: ACE; design: method as in 3 sources, ref 40 = [40]; PMID 38384691; doi:10.1016/j.fochx.2024.101211; 40. Wei G. Wang T. Li Y. He R. Huang A. Wang X. Identification, Structural Characterization, and Molecular Dynamic Simulation of ACE Inhibitory Peptides in Whey Hydrolysates from Chinese Rushan Cheese ||| ref 41 = [41]; PMID 39250996; doi:10.1016/j.ijbiomac.2024.135469; 41. Wang S. Zhang L. Wang H. Liu J. Hu Y. Tu Z. Angiotensin Converting Enzyme (ACE) Inhibitory Peptide from the Tuna ( Thunnus thynnus ) Muscle: Screening, Interaction Mechanism and Stability Int. J. ||| ref 42 = [42]; PMID 37793525; doi:10.1016/j.ijbiomac.2023.127196; 42. Wang S. Zhang L. Wang H. Hu Z. Xie X. Chen H. Tu Z. Identification of Novel Angiotensin Converting Enzyme (ACE) Inhibitory Peptides from Pacific Saury: In Vivo Antihypertensive Effect and Transpor; settings: cited from earlier work

Question: Which GSH-Px activity (EA.hy926 cells [1]) does the source give for OO [H2O2, hydrogen peroxide] here?
Answer: 119.49 ± 3.94 U/mg prot

Question: What about the SOD activity (EA.hy926 cells [2]) of the same molecule?
Answer: 67.47 ± 9.93 U/mg prot

Question: What does the source list for “Angiotensin II (DRVYIHPF; Angiotensin-2; UniProt P01019 25-32, looked up) [Ang II, used to induce endothelial dysfunction]”?
Answer: ET-1 content (EA.hy926 cells [3]): 15.65 ± 0.83 pg/mg prot; Migration rate (EA.hy926 cells [4]; 6 h, control 35.95 ± 1.08%): 42.44 ± 2.12%; Migration rate (EA.hy926 cells [4]; 24 h, control 79.33 ± 0.48%): 89.68 ± 1.47%; NO level (EA.hy926 cells [5]): 58.95 ± 4.31 μmol/g prot

Question: For FDGPY [identified from Lophius litulon], which “Docking interactions with ACE” value (ACE [6]; monkfish swim bladder) is on record?
Answer: interacted with Ala354 and Tyr523 via hydrogen bonding and hydrophobic interactions

Question: And the IC50 (ACE [7]; from Lophius litulon)?
Answer: 1570 µM

Question: For “FDVDRW [RJP-derived peptide; synthesized]”, which “ACE-inhibitory activity in vitro (comparison in words)” value [8] is on record?
Answer: PYPDWSFAK and RPYPDWSF exhibited significantly higher ACE-inhibitory activity in vitro than FDVDRW and QWHDKIF

Question: With FPPDVA as the molecule, how does the IC50 (ACE [7]; from tuna dark muscle hydrolysates) read?
Answer: 87.1 ± 1.02 µM

Question: For “ITAPHW [from fermented black sesame seed]”, which “Docking interactions with ACE” value (ACE [6]; fermented black sesame seed) is on record?
Answer: strong ACE inhibition due to direct Zn^2+ coordination

Question: For “KWEKPF [from Chinese Rushan cheese by-products]”, which ACE inhibition mode (ACE [9]; from Chinese Rushan cheese by-products) is on record?
Answer: mixed-type ACE inhibition

Question: For LEPWR [from Pacific saury], which ACE inhibition mode (ACE [9]; from Pacific saury) is on record?
Answer: mixed-type ACE inhibition

Question: Which ACE inhibition mode (ACE [9]; from tuna (Thunnus thynnus) muscle) does the source give for “LTGCP [from tuna (Thunnus thynnus) muscle]” here?
Answer: mixed-type ACE inhibition

Question: Which “ACE-inhibitory activity in vitro (comparison in words)” value [8] does the source give for “QWHDKIF [RJP-derived peptide; synthesized]” here?
Answer: PYPDWSFAK and RPYPDWSF exhibited significantly higher ACE-inhibitory activity in vitro than FDVDRW and QWHDKIF

Question: What does the source list for SEGPK [identified from Lophius litulon]?
Answer: Docking interactions with ACE (ACE [6]; monkfish swim bladder): interacted with Ala354 and Tyr523 via hydrogen bonding and hydrophobic interactions; IC50 (ACE [7]; from Lophius litulon): 1210 µM

Question: For “SLPNYHPSPR [from fermented black sesame seed]”, which “Docking interactions with ACE” value (ACE [6]; fermented black sesame seed) is on record?
Answer: strong ACE inhibition due to direct Zn^2+ coordination

Question: Which “Docking interactions with ACE” value (ACE [6]; monkfish swim bladder) does the source give for SPGPW [identified from Lophius litulon] here?
Answer: formed a hydrogen bond with the catalytic residue His387

Question: What about the IC50 (ACE [7]; from Lophius litulon) of the same molecule?
Answer: 1310 µM

Question: For VDRYF [from skipjack tuna muscle], which “Docking interactions with ACE” value (ACE [6]; skipjack tuna muscle) is on record?
Answer: formed hydrogen bonds with Ala354 and Tyr523 within S1 pocket, respectively
